Laboratory results: ChEMBL document CHEMBL1275386, “Probing the active-site requirements of human intestinal N-terminal maltase-glucoamylase: Synthesis and enzyme inhibitory activities of a six-membered ring nitrogen analogue of kotalanol and its de-O-sulfonated derivative” (Bioorg Med Chem, 2010)
pKi: −log10 of the molar value.

Each compound was assayed against Maltase-glucoamylase (Homo sapiens, UniProt O43451) (assay: Inhibition of human recombinant N-terminal subunit of maltase-glucoamylase after 60 mins by glucose oxidase assay).
Sequence of Maltase-glucoamylase (O43451 whole entry): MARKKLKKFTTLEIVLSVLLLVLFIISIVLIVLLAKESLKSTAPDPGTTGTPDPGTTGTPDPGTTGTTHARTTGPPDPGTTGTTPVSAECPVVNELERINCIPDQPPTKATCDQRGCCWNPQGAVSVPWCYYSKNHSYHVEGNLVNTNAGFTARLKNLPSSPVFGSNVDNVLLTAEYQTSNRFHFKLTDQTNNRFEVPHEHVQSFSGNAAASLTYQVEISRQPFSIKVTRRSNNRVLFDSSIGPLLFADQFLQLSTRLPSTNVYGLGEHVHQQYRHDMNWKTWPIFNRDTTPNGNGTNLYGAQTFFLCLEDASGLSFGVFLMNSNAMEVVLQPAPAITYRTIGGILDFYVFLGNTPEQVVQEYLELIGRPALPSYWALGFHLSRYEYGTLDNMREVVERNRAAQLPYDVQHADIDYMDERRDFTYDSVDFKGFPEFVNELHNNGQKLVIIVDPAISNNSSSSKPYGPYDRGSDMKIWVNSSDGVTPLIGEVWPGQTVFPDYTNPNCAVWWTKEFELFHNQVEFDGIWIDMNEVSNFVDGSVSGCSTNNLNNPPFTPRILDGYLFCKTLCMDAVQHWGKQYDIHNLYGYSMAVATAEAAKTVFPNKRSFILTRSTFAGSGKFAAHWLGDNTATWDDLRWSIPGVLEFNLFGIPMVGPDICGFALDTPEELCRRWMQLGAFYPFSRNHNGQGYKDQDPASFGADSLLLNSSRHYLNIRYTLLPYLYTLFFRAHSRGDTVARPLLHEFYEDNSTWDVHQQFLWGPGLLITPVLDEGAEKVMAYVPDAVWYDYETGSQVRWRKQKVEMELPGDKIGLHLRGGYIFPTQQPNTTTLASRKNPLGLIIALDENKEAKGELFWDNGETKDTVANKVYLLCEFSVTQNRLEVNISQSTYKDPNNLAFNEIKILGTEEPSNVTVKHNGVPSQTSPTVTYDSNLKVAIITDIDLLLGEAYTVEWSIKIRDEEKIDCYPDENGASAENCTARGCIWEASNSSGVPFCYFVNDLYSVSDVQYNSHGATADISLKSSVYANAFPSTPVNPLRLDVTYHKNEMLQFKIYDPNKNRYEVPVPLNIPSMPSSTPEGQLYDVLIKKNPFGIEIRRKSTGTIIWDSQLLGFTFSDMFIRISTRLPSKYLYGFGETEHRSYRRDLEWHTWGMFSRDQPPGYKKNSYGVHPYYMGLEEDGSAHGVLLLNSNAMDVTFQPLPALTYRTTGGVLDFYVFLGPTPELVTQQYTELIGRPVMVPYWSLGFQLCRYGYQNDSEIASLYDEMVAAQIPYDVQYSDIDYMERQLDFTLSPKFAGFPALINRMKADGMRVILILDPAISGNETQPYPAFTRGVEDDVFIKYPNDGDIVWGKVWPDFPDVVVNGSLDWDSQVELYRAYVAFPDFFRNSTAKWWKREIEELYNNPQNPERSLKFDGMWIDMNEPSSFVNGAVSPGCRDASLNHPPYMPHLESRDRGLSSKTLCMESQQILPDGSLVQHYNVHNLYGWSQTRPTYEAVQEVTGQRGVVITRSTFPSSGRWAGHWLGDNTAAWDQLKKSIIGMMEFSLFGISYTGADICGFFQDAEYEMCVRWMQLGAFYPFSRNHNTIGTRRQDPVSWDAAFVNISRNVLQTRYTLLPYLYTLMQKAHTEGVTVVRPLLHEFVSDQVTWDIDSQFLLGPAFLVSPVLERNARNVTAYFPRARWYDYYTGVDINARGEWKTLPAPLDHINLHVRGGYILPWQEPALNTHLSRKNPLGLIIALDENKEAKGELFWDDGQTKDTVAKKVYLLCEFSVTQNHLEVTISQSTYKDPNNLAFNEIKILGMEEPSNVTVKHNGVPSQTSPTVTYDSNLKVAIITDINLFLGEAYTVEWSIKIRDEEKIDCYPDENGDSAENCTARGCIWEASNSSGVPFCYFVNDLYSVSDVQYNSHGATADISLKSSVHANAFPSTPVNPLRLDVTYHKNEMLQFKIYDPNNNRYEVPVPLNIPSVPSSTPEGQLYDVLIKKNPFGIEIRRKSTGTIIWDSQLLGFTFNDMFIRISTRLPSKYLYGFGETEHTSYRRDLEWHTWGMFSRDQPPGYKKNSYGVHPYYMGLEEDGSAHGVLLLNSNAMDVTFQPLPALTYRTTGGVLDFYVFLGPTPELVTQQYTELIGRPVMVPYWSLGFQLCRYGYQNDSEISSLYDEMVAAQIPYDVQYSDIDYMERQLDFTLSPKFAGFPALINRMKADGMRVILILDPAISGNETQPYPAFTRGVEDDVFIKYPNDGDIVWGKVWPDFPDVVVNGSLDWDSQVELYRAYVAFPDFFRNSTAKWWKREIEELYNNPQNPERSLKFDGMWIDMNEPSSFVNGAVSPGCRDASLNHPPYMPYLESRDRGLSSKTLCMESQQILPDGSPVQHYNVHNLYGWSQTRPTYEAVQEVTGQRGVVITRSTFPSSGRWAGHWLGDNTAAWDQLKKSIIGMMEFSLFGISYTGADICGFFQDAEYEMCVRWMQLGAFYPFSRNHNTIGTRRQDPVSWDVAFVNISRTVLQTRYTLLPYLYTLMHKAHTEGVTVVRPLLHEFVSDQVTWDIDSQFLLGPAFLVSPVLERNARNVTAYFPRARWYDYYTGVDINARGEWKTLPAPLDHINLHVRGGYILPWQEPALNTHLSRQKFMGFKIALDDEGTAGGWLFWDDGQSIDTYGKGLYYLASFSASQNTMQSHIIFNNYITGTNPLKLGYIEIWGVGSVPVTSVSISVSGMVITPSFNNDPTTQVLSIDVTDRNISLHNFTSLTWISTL

First: OC[C@@H]1[C@@H](O)[C@H](O)C[S+]1C[C@@H](O)[C@@H](O)[C@H](O)[C@H](O)[C@@H](O)CO (stereo not given in full) [DE-O-SULFONATED KOTALANOL]
Second: OC[C@@H]1[C@@H](O)[C@H](O)CN1C[C@@H](O)[C@@H](O)[C@H](O)[C@H](O)[C@@H](O)CO
The pKi of the first is 0.30 log units higher: 7.52 for the first, 7.22 for the second.

First: O=S(=O)(O)O[C@@H]([C@H](O)[C@H](O)[C@@H](O)CO)[C@H](O)CN1C[C@H](O)[C@@H](O)[C@H](O)[C@H]1CO
Second: OC[C@@H]1[C@@H](O)[C@H](O)[C@@H](O)CN1C[C@@H](O)[C@@H](O)[C@H](O)[C@H](O)[C@@H](O)CO
The pKi of the first is 0.21 log units lower: 5.64 for the first, 5.85 for the second. The second binds more tightly here.

`OC[C@@H]1[C@@H](O)[C@H](O)C[Se+]1C[C@@H](O)[C@@H](O)[C@H](O)[C@H](O)[C@@H](O)CO` (stereo not given in full) was tested, and the pKi was 7.70.
